Reference: patent US12091393B2, “Small molecule vaccine adjuvant for enhancing or prolonging immune response” (The Regents of the University of California, priority 2018, dated 2024)
Read-outs that look alike come from different tables or passages of the source.

Tests used:
[1] = system: NF-κB; assay: Measurement of NF-κB activation using THP1-Blue NF-κB cells (SEAP); format: cell-based; settings: for NF-κB activity (SAR discussion, in words): evaluated in both the presence and absence of LPS; for NF-κB activity when tested alone (in words): compound alone, without LPS
[2] = system: THP-1 cells; assay: Cell viability assay (MTT); format: cell-based; settings: compound 5 μM alone, 18 h, normalized to DMSO as 100%
Experimental: THP-1 cells were plated in 96-well plates (10^5 cells/well) in 100 μL RPMI supplemented with 10% FBS, 100 U/mL penicillin and 100 μg/ml streptomycin. Compounds were dissolved in DMSO at 1 mM stock solution and were further diluted to 10 μM in the assay medium. 100 μL of this solution was added to the cells to obtain a final compound concentration of 5 μM ([…]). After 18 h incubation, a solution of MTT in assay media (0.5 mg/mL) was added to each well and further incubated for 4 to 6 h, followed by addition of cell lysis buffer (15% w/v SDS and 0.12% v/v 12N HCl aqueous solution), incubated overnight, and then absorbance measured at 570 nm using 650 nm as reference using Tecan Infinite M200 plate reader.

[3] = system: NF-κB; assay: cell-based NF-κB FRET assay; settings: compound + LPS; two point normalized, compound 1 as 200%, LPS (10 ng/mL) as 100%
Description: Site A was assigned the 4-substituent of thiazole ring, site B was the thiazole ring itself, site C was the central amide bond in the structure, site D was the benzene ring bearing 1,4-carboxyl and sulfamoyl group, site E was the sulfonamide functional group and site F was the amide substituent on the sulfamoyl group.

[4] = compound 5 μM + LPS, 20 h, two point normalized, compound 1 as 200%, LPS (10 ng/mL) as 100%, read-out: NF-κB SEAP Compound + LPS % Activation
[5] = compound 5 μM alone, 20 h, two point normalized, compound 1 as 200%, LPS or DMSO as 100%, read-out: NF-κB SEAP Compound alone % Activation

Compound	activity at 5 µM [1, 4] [%]	activity at 5 µM [1, 5] [%]	NF-κB activity (SAR discussion, in words) [1]	MTT Compound alone % Viability [2] [%]	NF-κB FRET Compound + LPS % Activation [3] [%]	NF-κB SEAP Compound + LPS % Activation ([1]; compound 5 μM + LPS, 20 h, two point normalized, compound 1 as 200%, LPS (10 ng/mL) as 100%) [%]	NF-κB SEAP Compound alone % Activation ([1]; compound 5 μM alone, 20 h, two point normalized, compound 1 as 200%, LPS or DMSO as 100%) [%]	NF-κB activity when tested alone (in words) [1]
Cc1ccc(C)c(-c2ccc(NC(=O)c3ccc(S(=O)(=O)N4CCCCC4)cc3)cn2)c1 [Compound 18d, N-(6-(2,5-dimethylphenyl)pyridin-3-yl)-4-(piperidin-1-ylsulfonyl)benzamide]	97.2	98.2	none of these molecules that replaced the thiazole functionality were active	95.35	58.39			
CCN(CC)c1sc(NC(=O)c2ccc(S(=O)(=O)N3CCCCC3)cc2)nc1-c1cc(C)ccc1C [Compound 18g, N-(5-(diethylamino)-4-(2,5-dimethylphenyl)thiazol-2-yl)-4-(piperidin-1-ylsulfonyl)benzamide]	98.1	98	completely inactive	94.30	92.64			
Cc1ccc(C)c(-c2nc(NC(=O)c3ccc(S(=O)(=O)N4CCCCC4)cc3)sc2N2CCCCC2)c1 [Compound 18h, N-(4-(2,5-dimethylphenyl)-5-(piperidin-1-yl)thiazol-2-yl)-4-(piperidin-1-ylsulfonyl)benzamide]	99.9	99.2	completely inactive	89.45	99.96			
Cc1ccc(C)c(-c2nc(NC(=O)c3ccc(S(=O)(=O)N4CCCCC4)cc3)sc2-c2ccco2)c1 [Compound 18j, N-(4-(2,5-dimethylphenyl)-5-(furan-2-yl)thiazol-2-yl)-4-(piperidin-1-ylsulfonyl)benzamide]	102	100	completely inactive	107.56	160.49			
CCSc1sc(NC(=O)c2ccc(S(=O)(=O)N3CCCCC3)cc2)nc1-c1cc(C)ccc1C [Compound 18k, N-(4-(2,5-dimethylphenyl)-5-(ethylthio)thiazo-2-yl)-4-(piperidin-1-ylsulfonyl)benzamide]			completely inactive	111.74	167.51	104.47	100.75	
Cc1ccc(C)c(-c2nc(NC(=O)c3ccc(S(=O)(=O)N4CCCCC4)cc3)sc2C)c1 [Compound 18m, N-(4-(2,5-dimethylphenyl)-5-methylthiazol-2-yl)-4-(piperidin-1-ylsulfonyl)benzamide]	179	159		96.90	186.92			
Cc1ccc(C)c(-c2nc(NC(=O)c3ccc(S(=O)(=O)N4CCCCC4)cc3)sc2Br)c1 [Compound 18n, N-(5-bromo-4-(2,5-dimethylphenyl)thiazol-2-yl)-4-(piperidin-1-ylsulfonyl)benzamide]	198	133		84.46	154.54			
C#Cc1sc(NC(=O)c2ccc(S(=O)(=O)N3CCCCC3)cc2)nc1-c1cc(C)ccc1C [Compound 18o, N-(4-(2,5-dimethylphenyl)-5-ethynylthiazol-2-yl)-4-(piperidin-1-ylsulfonyl)benzamide]	153	118	weak activity	111.27	101.71			
CCC#Cc1sc(NC(=O)c2ccc(S(=O)(=O)N3CCCCC3)cc2)nc1-c1cc(C)ccc1C [Compound 18p, N-(5-(but-1-yn-1-yl)-4-(2,5-dimethylphenyl)thiazol-2-yl)-4-(piperidin-1-ylsulfonyl)benzamide]	192	291		120.17	210.21			very potent
CCCC#Cc1sc(NC(=O)c2ccc(S(=O)(=O)N3CCCCC3)cc2)nc1-c1cc(C)ccc1C [Compound 18q, N-(4-(2,5-dimethylphenyl)-5-(pent-1-yn-1-yl)thiazol-2-yl)-4-(piperidin-1-ylsulfonyl)benzamide]	242	393	most potent	105.84	215.78			very potent
CCCCc1sc(NC(=O)c2ccc(S(=O)(=O)N3CCCCC3)cc2)nc1-c1cc(C)ccc1C [Compound 18s, N-(5-butyl-4-(2,5-dimethylphenyl)thiazol-2-yl)-4-(piperidin-1-ylsulfonyl)benzamide]	124	116	retained activity	141.98	176.96			
CCCCCc1sc(NC(=O)c2ccc(S(=O)(=O)N3CCCCC3)cc2)nc1-c1cc(C)ccc1C [Compound 18t, N-(4-(2,5-dimethylphenyl)-5-pentylthiazol-2-yl)-4-(piperidin-1-ylsulfonyl)benzamide]	132	119	loss in activity	110.37	213.25			
Cc1ccc(C)c(-c2csc(NCc3ccc(S(=O)(=O)N4CCCCC4)cc3)n2)c1 [Compound 34a, 4-(2,5-dimethylphenyl)-N-(4-(piperidin-1-ylsulfonyl)benzyl)thiazol-2-amine]	102	99.1	inactive	85.48	106.53			
Cc1ccc(C)c(-c2csc(C(=O)Nc3ccc(S(=O)(=O)N4CCCCC4)cc3)n2)c1 [Compound 34b, 4-(2,5-dimethylphenyl)-N-(4-(piperidin-1-ylsulfonyl)phenyl)thiazole-2-carboxamide]	104	98.8	weak activity	91.08	134.57			
Cc1ccc(C)c(-c2csc(N(C)C(=O)c3ccc(S(=O)(=O)N4CCCCC4)cc3)n2)c1 [Compound 34c, N-(4-(2,5-dimethylphenyl)thiazol-2-yl)-N-methyl-4-(piperidin-1-ylsulfonyl)benzamide]	105	101	inactive	97.43	143.05			
Cc1ccc(C)c(-c2csc(NC(=O)c3ccc(S(=O)(=O)N4CCCCC4)cn3)n2)c1 [Compound 46a, N-(4-(2,5-dimethylphenyl)thiazol-2-yl)-5-(piperidin-1-ylsulfonyl)picolinamide]	111	99.2	none of these modifications at site D or E were tolerated	94.46	151.90			
Cc1ccc(C)c(-c2csc(NC(=O)c3ccc(S(=O)(=O)N4CCCCC4)nc3)n2)c1 [Compound 46b, N-(4-(2,5-dimethylphenyl)thiazol-2-yl)-6-(piperidin-1-ylsulfonyl)nicotinamide]	115	100	none of these modifications at site D or E were tolerated	88.57	146.35			
Cc1ccc(C)c(-c2csc(NC(=O)c3ccc(SC4CCCCC4)cc3)n2)c1 [Compound 49a, 4-(cyclohexylthio)-N-(4-(2,5-dimethylphenyl)thiazol-2-yl)benzamide]	114	99.7	none of these modifications at site D or E were tolerated	85.22	139.79			
Cc1ccc(C)c(-c2csc(NC(=O)c3ccc(S(=O)(=O)C4CCCCC4)cc3)n2)c1 [Compound 49b, 4-(cyclohexylsulfonyl)-N-(4-(2,5-dimethylphenyl)thiazol-2-yl)benzamide]	114	99.8	none of these modifications at site D or E were tolerated	81.81	136.43			
Cc1ccc(C)c(-c2csc(NC(=O)c3ccc(C(=O)N4CCCCC4)cc3)n2)c1 [Compound 49c, N-(4-(2,5-dimethylphenyl)thiazol-2-yl)-4-(piperidine-1-carbonyl)benzamide]	109	99.3	none of these modifications at site D or E were tolerated	87.59	134.09			
